Source: patent US5037822A, “1-arylsulphonyl-2-pyrrolidinethione or 1-arylsulphonyl-2-piperidinethione derivatives, process for the preparation thereof their application as medicinal products and compositions containing them” (Roussel-Uclaf, priority 1989, dated 1991)
Like-named read-outs stand apart in the source and are kept apart here.

Key:
[1] = tested on: isolated guinea pig ileum; experiment: Agonist action on isolated guinea pig ileum; assay type: cell-based; settings: Cavia porcellus, read-out: Agonist action pD2 (converted)
Experimental: (§1) The interaction of the compounds with different receptors was assessed on isolated guinea pig ileum according to the following method.
(§2) Guinea pig ileum segments measuring 2.5-3 cm were washed and immediately suspended in a bath containing 10 ml of Tyrode's solution at 37° C. aerated with a mixture of oxygen (95%) and carbon dioxide (5%). After a stabilization period of at least 30 minutes, the contractions were recorded, maintaining the preparation under constant tension of 1 g using a gauge connected to a polygraph. The agonist action was assessed by leaving the compound in contact with the isolated tissue for a period necessary for expressing the maximal contraction; the preparation was then washed with Tyrode's solution. The next dose was added to the bath only after the preparation had returned to its base line. As a reference product, arecoline was employed. The antagonist action was assessed on contractions induced by acetylchloine (1×10^-6 M), histamine (1×10^-5 M) and barium chloride (2×10^-4 M). Atropine, diphenhydramine and papaverine were employed as reference products. The contact time before adding the agonist was one minute.
(§3) For each compound, the dose-response curves are obtained with 4 to 6 different concentrations and 3 to 5 independent tests. The agonist activity is expressed by pD2 (negative logarithm of the dose which produces 50% of the maximum effect). The antagonist activity is expressed by IC50 (concentration inhibiting 50% of the maximal response).

Muscarinic receptor 1 = biological target: T1, Muscarinic receptor 1 (Rattus norvegicus, UniProt P08482); experiment: Binding to muscarinic receptor 1 ([3H]pirenzepine); settings: 0.25 nM [3H]pirenzepine, rat cortex homogenate, pH 7.4, 60 min, 25° C.; read-out: Affinity for M1 muscarinic receptor, IC50
T1 construct: cortices removed from the brains of male rats; tissue Iffa Credo (animals); host or cells: cerebral cortex of male rats weighing 150 to 200 g, homogenate
T1 sequence (P08482 1-460): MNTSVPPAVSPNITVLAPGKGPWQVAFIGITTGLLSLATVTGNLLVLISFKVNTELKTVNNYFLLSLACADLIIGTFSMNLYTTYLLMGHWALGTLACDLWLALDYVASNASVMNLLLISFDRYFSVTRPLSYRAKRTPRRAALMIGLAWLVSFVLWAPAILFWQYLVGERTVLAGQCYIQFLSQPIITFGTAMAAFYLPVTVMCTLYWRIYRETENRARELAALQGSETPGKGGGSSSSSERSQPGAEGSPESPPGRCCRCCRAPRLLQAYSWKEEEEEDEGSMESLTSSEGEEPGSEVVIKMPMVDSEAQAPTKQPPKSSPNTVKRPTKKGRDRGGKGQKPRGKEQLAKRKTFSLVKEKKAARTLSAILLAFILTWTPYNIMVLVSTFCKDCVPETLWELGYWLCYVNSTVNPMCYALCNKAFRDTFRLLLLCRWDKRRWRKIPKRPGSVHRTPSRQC
Experimental: Preparation of this is carried out from cortices removed from the brains of male rats weighing 150 to 200 g (Iffa Credo), ground in a Polytron in a 10 mM Na/K buffer pH 7.4. After incubation (0.5 ml aliquots of homogenate) for 60 minutes at 25° C. in the presence of 0.25 nM [^3 H]pirenzepine, either alone, or with the test product, or with an excess of 10^-5 M pirenzepine (to determine the non-specifically bound radioactivity), the incubates are cooled and filtered.
The filtration is performed on Whatman GF/C filters prewashed in a 0.05% strength solution of polyethylenimine. The filters are rinsed with 3×5 ml of 10 mM Na/K phosphate buffer pH 7.4 and the measurements are then performed by liquid scintillation.
(§4) The results are expressed as an IC50 (concentration needed to inhibit by 50% the specifically bound radioactivity).

Muscarinic receptor 2 = experiment: Binding to muscarinic receptor 2 ([3H]quinuclidinyl benzylate); settings: 0.3 nM [3H]quinuclidinyl benzylate, rat brain, pH 7.5, 60 min, 25° C.; read-out: Affinity for M2 muscarinic receptor, IC50
Experimental: The preparation is performed from brains of male rats weighing 150 to 200 g (Iffa Credo).
The brains are ground (Teflon-glass) in 0.32M sucrose solution. The homogenate is centrifuged for 10 minutes at 1,000 g (0°-4° C.).
The supernatant obtained is collected and centrifuged at 30,000 g for 15 minutes (0°-4° C.).
The pellet is resuspended in 50 mM Tris buffer pH 7.5 and the new homogenate is centrifuged again at 30,000 g for 15 minutes (0°-4° C.).
After removal of the supernatant, the pellets may be used immediately or stored for up to 1 month at -30° C.
For an experiment, the pellets are first thawed, if necessary, at room temperature and resuspended using a Dounce in 50 mM Tris buffer pH 7.5. 2 ml aliquots are incubated for 60 minutes at 25° C. in the presence of 0.3 nM [^3 H]quinuclidinyl benzylate, either alone, or with the test product, or with 10^-5 M benzatropine to determine the non-specifically bound radioactivity.
At the end of the incubation period, the incubate tubes are cooled to 4° C. and filtered rapidly on Whatman GF/C filters. The filters are rinsed with 3×5 ml of 50 mM Tris buffer pH 7.5 and the measurements are then performed by liquid scintillation (Henry I. Yamamura, Solomon H. Snyder, Proc. Nat. Acad. Sc. (1974) 71, No. 5, 1725-1729).
as §4

[2] = tested on: isolated guinea pig ileum, contractions induced by acetylcholine; experiment: Antagonist action on acetylcholine-induced contractions of isolated guinea pig ileum; assay type: cell-based; settings: Cavia porcellus, read-out: Antagonist to ACh, IC50
Experimental: as §1, §2, §3

[3] = tested on: isolated guinea pig ileum, contractions induced by barium chloride; experiment: Antagonist action on barium chloride-induced contractions of isolated guinea pig ileum; assay type: cell-based; settings: Cavia porcellus, read-out: Antagonist to BaCl2, IC50
Experimental: as §1, §2, §3

[4] = tested on: cholinomimetic effects induced by carbachol; experiment: In vivo anticholinergic action: inhibition of carbachol-induced cholinomimetic effects in mice; design: species or system CD1 male mice; settings: for ED (1 C) / ED50: Mus musculus, ip; for ED (1 C): read-out: Body temperature: dose increasing by 1° C. the hypothermic effect induced by the cholinergic agent
Experimental: The anticholinergic activity of the compounds was determined by assessing the capacity to inhibit the cholinomimetic effects induced by carbachol. Atropine sulphate was employed as a reference product.
CD1 male mice weighing 25 to 30 g were used. They were distributed in groups of 6 animals and treated intraperitoneally with scalar doses of the products or 0.25% Methocel for the controls. 12 animals were used for each dose. 30 minutes after administration of the compounds, the mice were injected subcutaneously with 1 mg/kg of carbachol dissolved in physiological saline.
Each animal was examined 30 minutes after the injection of carbachol to assess the presence of diarrhoea, salivation and eye watering; in addition, the body temperature was measured by means of a thermocouple inserted 1.5 cm into the rectum.
For each compound, we have determined and recorded in the following table the dose capable of inhibiting the appearance of the carbachol-induced cholinometric symptoms in 50% of the animals, and of increasing by 1° C. the hypothermic effect induced by the cholinergic agent.

[5] = tested on: isolated guinea pig ileum, contractions induced by histamine; experiment: Antagonist action on histamine-induced contractions of isolated guinea pig ileum; assay type: cell-based; settings: Cavia porcellus; histamine 1×10^-5 M, contact time one minute, 37° C.; read-out: Antagonist to Histam., IC50
Experimental: as §1
as §2, with “The antagonist action was assessed on contractions induced by acetylchloine (1×10^-6 M), histamine (1×10^-5 M) and barium chloride (2×10^-4 M). Atropine, diphenhydramine and papaverine were employed as reference products.” left out
as §3

[6] = acetylcholine 1×10^-6 M, contact time one minute, 37° C.
[7] = barium chloride 2×10^-4 M, contact time one minute, 37° C.
[8] = negative logarithm of the dose producing 50% of the maximum effect, 37° C.
[9] = 30 min before carbachol 1 mg/kg s.c., mice
[10] = 30 min before carbachol 1 mg/kg s.c., mice, read-out: Dose inhibiting carbachol-induced diarrhoea in 50% of the animals
[11] = 30 min before carbachol 1 mg/kg s.c., mice, read-out: Dose inhibiting carbachol-induced eye watering in 50% of the animals
[12] = 30 min before carbachol 1 mg/kg s.c., mice, read-out: Dose inhibiting carbachol-induced salivation in 50% of the animals

SMILES	IC50 (Muscarinic receptor 1)	IC50 (Muscarinic receptor 2)	IC50 [2, 6]	IC50 [3, 7]	EC50 [1, 8]	IC50 [5]	EC50 [1]	ED (1 C) [4, 9]	ED50 [4, 10]	ED50 [4, 11]	ED50 [4, 12]	IC50 [3]	IC50 [2]	ED50 ([4]; read-out: Dose inhibiting carbachol-induced diarrhoea in 50% of the animals)	ED50 ([4]; read-out: Dose inhibiting carbachol-induced eye watering in 50% of the animals)	ED50 ([4]; read-out: Dose inhibiting carbachol-induced salivation in 50% of the animals)	cholinomimetic symptoms induced by carbachol ([4]; 1 mg/kg s.c., control mice)	decrease in rectal temperature induced by carbachol ([4]; 1 mg/kg s.c., control mice)
COC(=O)C1=CCCN(C)C1 [Arecoline, arecoline, reference compound]							209 nM											
COc1ccc(Cc2nccc3cc(OC)c(OC)cc23)cc1OC [Papaverine, papaverine, reference compound]												45000 nM						
CCN(CC)c1ccc(S(=O)(=O)N2CCCC2=S)cc1 [Example 1, 1-[4-(Diethylamino)benzenesulphonyl]-2-pyrrolidinethione]	43 nM	2200 nM	570 nM	> 10000 nM	> 10000 nM	> 10000 nM		> 50 mg/kg	5 mg/kg	> 50 mg/kg	> 50 mg/kg							
CN1[C@@H]2CC[C@H]1C[C@@H](OC(=O)C(CO)c1ccccc1)C2 (stereo partly shown) [Atropine, reference compound]													9.5 nM	0.04 mg/kg	0.05 mg/kg	0.06 mg/kg		
C[N+](C)(C)CCOC(N)=O [Carbachol, carbachol, reference compound]																	induced diarrhoea, salivation and eye watering in all the control mice	approximately 2.5 °C

Continued, in another order:

IC50 (Muscarinic receptor 1)	IC50 (Muscarinic receptor 2)	IC50 [2, 6]	IC50 [3, 7]	EC50 [1, 8]	IC50 [5]	SMILES	EC50 [1]	ED (1 C) [4, 9]	ED50 [4, 10]	ED50 [4, 11]	ED50 [4, 12]	IC50 [3]	IC50 [2]	ED50 ([4]; read-out: Dose inhibiting carbachol-induced diarrhoea in 50% of the animals)	ED50 ([4]; read-out: Dose inhibiting carbachol-induced eye watering in 50% of the animals)	ED50 ([4]; read-out: Dose inhibiting carbachol-induced salivation in 50% of the animals)	cholinomimetic symptoms induced by carbachol ([4]; 1 mg/kg s.c., control mice)	decrease in rectal temperature induced by carbachol ([4]; 1 mg/kg s.c., control mice)
30 nM	580 nM	3600 nM	> 10000 nM	> 10000 nM		O=S(=O)(c1ccc(N2CCCCC2)cc1)N1CCCCC1=S [Example 4, 1-[4-(1-Piperidyl)benzenesulphonyl]-2-piperidinethione]		> 50 mg/kg	7 mg/kg	> 50 mg/kg	> 50 mg/kg							
10 nM	120 nM	280 nM	> 10000 nM	> 10000 nM		O=S(=O)(c1ccc(N2CCCCCC2)cc1)N1CCCC1=S [Example 5, 1-[4-(1-Hexahydroazepinyl)benzenesulphonyl]-2-pyrrolidinethione]		12 mg/kg	0.6 mg/kg	> 50 mg/kg	15 mg/kg							
12 nM	230 nM	190 nM	> 10000 nM	> 10000 nM		O=S(=O)(c1ccc(N2CCCCCC2)cc1)N1CCCCC1=S [Example 6, 1-[4-(1-Hexahydroazepinyl)benzenesulphonyl]-2-piperidinethione]		> 50 mg/kg	2 mg/kg	> 50 mg/kg	40 mg/kg							
25 nM	650 nM	2600 nM	> 10000 nM	> 10000 nM		O=S(=O)(c1ccc(N2CCCCC2)cc1)N1CCCC1=S [Example 3, 1-[4-(1-piperidyl)benzenesulphonyl]-2-pyrrolidinethione]		> 50 mg/kg	3 mg/kg	> 50 mg/kg	> 50 mg/kg							
73 nM	1900 nM	340 nM	> 10000 nM	> 10000 nM	> 10000 nM	CCN(CC)c1ccc(S(=O)(=O)N2CCCCC2=S)cc1 [Example 2, 1-[4-(diethylamino)benzenesulphonyl]-2-piperidinethione]		> 50 mg/kg	8 mg/kg	> 50 mg/kg	> 50 mg/kg							
